The values that follow come from patent US11397184B2, “Selection of patients for combination therapy” (Syndax Pharmaceuticals, Inc., priority 2015, dated 2022).

Where two headings read alike, the source gives them in different places. Bounds are passed on as bounds.

Data set [1] deals with monocytic MDSCs, granulocytic MDSCs and Lineage cells from healthy donor PBMCs. Description: In vitro dead cell dye staining of PBMCs cultured with IL-6 and GM-CSF, then DMSO or entinostat. It counts as cell-based, human. Particulars: entinostat 0.5 μM vs DMSO, two or three days, n=7. The protocol: (C) Absolute viable cell counts of MDSCs (upper panel, monocytic MDSCs; lower panel, granulocytic MDSCs). Fresh PBMCs (2×10^6 PBMCs/well) were cultured with IL-6 (10 ng/ml) and GM-CSF (10 ng/ml). […] (D) Percentage of dead cell dye-positive cells in the monocytic MDSCs (red line), granulocytic MDSCs (blue line), and Lineage cells (black line). […] Percentage of dead cell dye-positive cells among each population (monocytic MDSCs, granulocytic MDSCs, and lineage cells) was calculated. Mean±SD is shown (n=7).

For data set [2] the following is noted: in vivo; cited from earlier work.
Data set [3] deals with T-cell subsets in PBMCs of breast cancer patients. In words: ENCORE 301 blood samples: T-cell subsets and immune checkpoint receptor expression. It counts as in vivo, human. The following applies: ENCORE 301 patients, C1D15 vs baseline. On the procedure:
FIG. 5 illustrates gating strategy for analysis of T-cell subsets in PBMCs of breast cancer patients. (A) Initial gating was on single viable cells. The CD4^+ T-cells were further divided into Tregs (CD8^−CD4^+CD25^hiFoxp3^+ cells) and Foxp3^−CD4^+ T-cells (CD8^−CD4^+Foxp3^− cells). (B) Immune checkpoint receptor expression was evaluated for CD8^+ T-cells, Foxp3^−CD4^+ T-cells, and Tregs. Representative histograms for PD-1 (left), CTLA-4 (middle), and TIM-3 (right) were shown.
CD8+ T-cell: CD4−, CD8+, Foxp3−.
CD4+ T-cell: CD8−, CD4+, Foxp3−.
Tregs: CD4+, CD8−, CD25hi, Foxp3+.
(§1) Monocytes were analyzed for three populations: (1) CD14+; (2) CD14+, HLA-DRhi; and (3) CD14+, HLA-DRlow/−. PD-1, CTLA-4, and TIM-3 were measured on CD8+ T-cells, CD4+ T-cells, and Tregs, and CD40 was measured on myeloid derived suppressor cells.
(§2) The percent change in subsets at C1D15 vs. baseline was assessed based on the following surface markers: Lin-MDSC (lin;CD3,CD19,CD56)-HLA-DR-CD11b+CD33+), granulocytic MDSC (CD14−CD11b+CD33+), monocytic MDSC (Lin−HLA-DR−CD11b+CD33+CD14+), immature MDSC (Lin−HLA-DR−CD11b+CD33+CD14−), CD8+T-cells (CD4−CD8+), Foxp3−CD4+T-cells (CD8−CD4+Foxp3−), and Tregs (CD4+CD8−CD25hiFoxp3+). Monocytes were analyzed for three populations: CD14+, CD14+HLA-DRhi, and CD14+HLA-DR-low/negative. In addition, PD-1, CTLA-4, and TIM-3 were measured on T-cell subsets, and CD40 was measured on MDSCs.

The subject of data set [4] is myeloid derived suppressor cells in PBMCs of breast cancer patients. Description: ENCORE 301 blood samples: flow cytometry of circulating MDSC subsets and CD40 on MDSCs, baseline vs C1D15. It is filed as in vivo, human.
From the text: (A) Gating strategy for analysis of MDSC phenotypes in PBMCs of breast cancer patients. Initial gating was on single viable CD45^+ cells. Lineage (CD3, CD19, CD56)^−HLA-DR^−CD11b^+CD33^+ cells were defined as Lin^−MDSCs. The Lin^−MDSCs were further divided into monocytic MDSCs (Lin^−HLA-DR^−CD11b^+CD33^+CD14^+ cells) and immature MDSCs (Lin^−HLA-DR^−CD11b^+CD33^+CD14^− cells). CD14^−CD11b^+CD33^+ cells were defined as granulocytic MDSCs. […]
(§3) Blood samples were obtained on cycle 1 day 1 (C1D1; pre-treatment), C1D2, C1D8, and C1D15 for biomarker analyses. […] Cell populations were based on the following surface markers, in which “X−” means negative for marker X, “X+” means positive for marker X, “Xlow/−” means low levels to absence of marker X, and “Xhi” means high levels of expression of marker X:
Myeloid derived suppressor cell: CD3−, CD19−, CD56−, HLA-DR−, CD11b+, CD33+.
PMN-MDSC: CD14−, CD11b+, CD33+.
M-MDSC: CD3−, CD19−, CD56−, HLA-DR−, CD11b+, CD33+, CD14+.
Immature MDSC: CD3−, CD19−, CD56−, HLA-DR−, CD11b+, CD33+, CD14−.
as §1, §2
(Flow cytometry measures light scatter and fluorescence of single cells or particles in a stream.)

Data set [5] concerns advanced hormone receptor positive breast cancer. In words: ENCORE 301 randomized, placebo-controlled phase II trial: clinical outcome (PFS, OS). It counts as in vivo, human. The following applies: the 34 patients analysed for immune subsets. From the text:
Blood was collected from a subset of 49 patients (27 EE and 22 EP) representative of the 130 patients enrolled in ENCORE 301 on cycle 1 day 1 (C1D1; pretreatment), C1D2, C1D8, and C1D15 for biomarker analyses. Of these 49, C1D1 and C1D15 samples were available from 34 patients (20 EE and 14 EP) for further analysis of circulating immune subsets.

Data set [6] deals with CD14+ monocytes in PBMCs of breast cancer patients. In words: ENCORE 301 blood samples: flow cytometry of circulating monocyte populations, baseline vs C1D15. It counts as in vivo, human.
From the text: (A) Gating strategy for analysis of CD14^+ monocytes (left panel), CD14^+HLA-DR^hi monocytes (red box, right upper panel), and CD14^+HLA-DR^low/neg monocytes (blue box, right lower panel) in PBMCs of breast cancer patients. Initially gated on single viable CD45^+ cells. […] (D) HLA-DR expression on CD14^+ monocytes in vitro. […] Median fluorescence intensity, MFI.
as §3, §1, §2

The test system of data set [7] is squamous or non-squamous NSCLC. The following applies: cited from earlier work.
The test system of another data set is melanoma. The following applies: cited from earlier work.
Data set [8] concerns advanced refractory malignancies. The following applies: cited from earlier work.
The mark [9] stands for this setting: C1D1 vs C1D15, statistic not stated.
Where [10] appears, read: breast cancer patients, EP n = 14, EE n = 20, mean.
Setting [11] is: breast cancer patients, EP n = 14, EE n = 20, median.

Consider `Nc1ccccc1NC(=O)c1ccc(CNC(=O)OCc2cccnc2)cc1` [Entinostat, N-(2-aminophenyl)-4-[N-(pyridine-3-yl)methoxycarbonylamino-methyl]-benzamide], for which, in data set [1] (P=0.016), the “percentage of dead (dead cell dye-positive) granulocytic MDSCs” value was “increased” and the “percentage of dead (dead cell dye-positive) monocytic MDSCs” value is listed as “increased”. Also, the “percentage of dead (dead cell dye-positive) lineage cells (CD3+, CD19+, or CD56+)” value in [1] (P=0.7) is listed as “not increased”. Besides, the half-life (as a rule, the time needed for the level to fall by half in the phase considered) in data set [2] was “about 100 hours”. In addition, the “alteration of expression of CTLA-4, PD-1, or TIM-3 on T-cell subsets” value in data set [3] is listed as “did not significantly”.

With `C=C1C[C@@H]2[C@H](CC[C@]3(C)C(=O)CC[C@@H]23)[C@@]2(C)C=CC(=O)C=C12` [EP], in data set [4] (setting [9]), the “change of M-MDSCs (monocytic MDSC)” value is given as “+1.97%”, the “change of PMN-MDSCs (granulocytic MDSC)” value was “+20.56%” and the “change of immature MDSCs” value was −15.0%. Further, in [4] (setting [10]), the “CD40 on Lin-MDSCs change from baseline to C1D15, Mean (SD)” value is 14.85 (34.92) %; the “CD40 on g-MDSCs change from baseline to C1D15, Mean (SD)” value is 16.52 (32.07) %; the “CD40 on immature MDSCs change from baseline to C1D15, Mean (SD)” value is reported as 18.64 (35.15) %; the “CD40 on m-MDSCs change from baseline to C1D15, Mean (SD)” value is given as 3.37 (25.69) %. Also, in data set [4] (setting [10]), the “Lin-MDSCs change from baseline to C1D15, Mean (SD)” value is given as 1.28 (83.31) %; the “g-MDSCs change from baseline to C1D15, Mean (SD)” value was 20.56 (68.45) %; the “immature MDSCs change from baseline to C1D15, Mean (SD)” value is reported as 4.92 (94.50) %; the “m-MDSCs change from baseline to C1D15, Mean (SD)” value is reported as 28.24 (86.60) %. In addition, in data set [4] (setting [11]), the “CD40 on Lin-MDSCs change from baseline to C1D15, Median (Min, Max)” value is 3.37 %; the “CD40 on g-MDSCs change from baseline to C1D15, Median (Min, Max)” value is reported as 10.52 %; the “CD40 on immature MDSCs change from baseline to C1D15, Median (Min, Max)” value is given as 9.00 %; the “CD40 on m-MDSCs change from baseline to C1D15, Median (Min, Max)” value turned out to be 1.57 %. Further, in data set [4] (setting [11]), the “Lin-MDSCs change from baseline to C1D15, Median (Min, Max)” value is −22.11 %; the “g-MDSCs change from baseline to C1D15, Median (Min, Max)” value is 3.82 %; the “immature MDSCs change from baseline to C1D15, Median (Min, Max)” value is recorded as −20.94 %; the “m-MDSCs change from baseline to C1D15, Median (Min, Max)” value was found to be 1.97 %. Further, in data set [5], the “Overall Survival (OS)” value was determined as 20.3 months and the “Progression Free Survival (PFS)” value was found to be 1.8 months. Moreover, in [6] (setting [9]), the “HLA-DR levels (expression) on monocytes, change” value is given as −4.7% and the “change of (number of) HLA-DR+ monocytes” value is given as −11.38%. For the same compound, in data set [6] (setting [10]), the “CD14+ change from baseline to C1D15, Mean (SD)” value is on record as −0.58 (22.73) %; the “CD14+HLA-DR HI change from baseline to C1D15, Mean (SD)” value is −8.63 (17.77) %; the “CD14+HLA-DR LO/NEG change from baseline to C1D15, Mean (SD)” value is given as 13.45 (43.11) %; the “HLA-DR expression on CD14+ change from baseline to C1D15, Mean (SD)” value was −6.23 (18.77) %. Moreover, in data set [6] (setting [11]), the “CD14+ change from baseline to C1D15, Median (Min, Max)” value is 1.90 %; the “CD14+HLA-DR HI change from baseline to C1D15, Median (Min, Max)” value is reported as −11.38 %; the “CD14+HLA-DR LO/NEG change from baseline to C1D15, Median (Min, Max)” value is recorded as 1.55 %; the “HLA-DR expression on CD14+ change from baseline to C1D15, Median (Min, Max)” value was −4.74 %.

Turning to “MPDL3280A: human anti-PD-L1 mAb with engineered Fc domain”, the “24-week PFS rate” value in [7] (non-squamous cell NSCLC) is listed as 46%; in data set [7] (squamous cell NSCLC), 44%.

On to “Pembrolizumab: humanized monoclonal IgG4 anti-PD-1 antibody”, for which the “overall objective response rate (ORR)” value in the data set with melanoma (immune-related response criteria, 44 of 117) is on record as 38%. For the same compound, in the data set on melanoma (in vivo), the “patients with some AEs” value is 79% and the “rate of severe toxicities, less dose intense cohorts” value is given as < 10%. Also, in the data set with melanoma (melanoma), the “median progression free survival” value was “exceeded 7 months” and the “patients with some degree of tumor regression” value was 77%. Besides, in [8] (1, 3 and 10 mg/kg intravenously), the maximum tolerated dose entry is on record as “not reached”. For the same compound, in data set [8] (dose-escalation study), the “patients with some tumor regression” value is recorded as “Four”. Further, the half-life in data set [8] (in vivo) is 13.6 to 21.7 days.
